Results on four substances are retold here after patent publication US20200165312A1, “COSMETIC COMPOSITION FOR IMPROVING SKIN CONDITIONS COMPRISING FUSION PROTEIN INCLUDING SKIN PENETRATION ENHANCING PEPTIDE” (LG HOUSEHOLD & HEALTH CARE LTD., priority 2017, published 2020).

Assay [1] relates to dermal fibroblasts. Put plainly: Collagen production in dermal fibroblasts (ELISA). To be noted: 10 ng/mL, serum-free DMEM, two days; control = 100. The class given is cell-based, human. Here is the method: Specifically, dermal fibroblasts were inoculated onto a 24-well plate and cultured for 24 hours to obtain cultures having a saturation degree of 70 to 80%. The cultures were washed with PBS and cultured in a serum-free DMEM medium including 10 ng/mL T-PDGFa or PDGFa for two days. A supernatant was obtained therefrom and the amount of collagen produced and released in the culture solution was quantitively analyzed using an ELISA kit (R&D Systems) (Table 4).

Assay [2] concerns dermal fibroblasts. Put plainly: Hyaluronic acid (HA) production in dermal fibroblasts (ELISA). The class given is cell-based, human. To be noted: 10 ng/mL T-PDGFa or PDGFa, two days; control = 100. Here is the method:
Specifically, dermal fibroblasts were inoculated onto a 24-well plate and cultured for 24 hours to obtain cultures having a saturation degree of 70 to 80%. The cultures were washed with PBS and cultured in a serum-free DMEM medium including 10 ng/mL T-PDGFa or PDGFa for two days. A supernatant was obtained therefrom and the amount of hyaluronic acid (HA) produced and released in the culture solution was quantitively analyzed using an ELISA kit (R&D Systems) (Table 5).
Specifically, dermal fibroblasts were inoculated onto a 24-well plate and cultured for 24 hours to obtain cultures having a saturation degree of 70 to 80%. […] A supernatant was obtained therefrom and the amount of hyaluronic acid (HA) produced and released in the culture solution was quantitively analyzed using an ELISA kit (R&D Systems) (Table 9).
A general note: An ELISA detects its analyte on a solid surface through an enzyme-linked reagent.

For another assay, the system named is dermal papilla cells. Put plainly: Hair follicle stem cell proliferation: dermal papilla cells, Cell Counter Kit-8. The class given is cell-based. The settings on record: for Proliferation (%): control = 100. On the procedure: (§1) Specifically, dermal papilla cells were inoculated onto a 96-well plate and cultured for 24 hours to obtain cultures at a density of 6,000 cells per well. The cultures were washed with PBS and cultured in a serum-free DMEM medium for one day. The cells were washed with PBS again and cultured in a serum-free DMEM medium supplemented with 1 ng/mL T-PDGFa or PDGFa for one day. The cultures were obtained therefrom and a difference between proliferated amounts of cells was quantitively analyzed using the Cell Counter Kit-8 (Dojindo). Here, dermal papilla cells cultured in a serum-free DMEM medium without T-PDGFa or PDGFa were used as a control (Table 6).
Specifically, dermal papilla cells were inoculated onto a 96-well plate and cultured for 24 hours to obtain cultures at a density of 6,000 cells per well. The cultures were washed with PBS and cultured in a serum-free DMEM medium for one day. […] The cultures were obtained therefrom and a difference between proliferated amounts of cells was quantitively analyzed using the Cell Counter Kit-8 (Dojindo).
as §1, with “T-IGF-1” for “T-PDGFa”, “IGF-1” for “PDGFa”, “15).” for “6).”
as §1, with “10” for “1”, “T-KGF” for “T-PDGFa”, “KGF” for “PDGFa”, “19).” for “6).”
as §1, with “10” for “1”, “T-Tβ4” for “T-PDGFa”, “Tβ4” for “PDGFa”, “23).” for “6).”

The subject of assay [3] is human umbilical vein endothelial cells. The assay can be described thus: Endothelial cell proliferation, Cell Counter Kit-8. The class given is cell-based. The settings on record: for Proliferation (%): 100 ng/mL T-Tβ4 or Tβ4, serum-free M199, one day, control = 100. Here is the method:
Specifically, human umbilical vein endothelial cells were inoculated onto a 96-well plate and cultured for 24 hours to obtain cultures at a density of 5,000 cells per well. The cultures were washed with PBS and cultured in a serum-free M199 medium for 16 hours. […] The cultures were obtained therefrom and a difference between proliferated amounts of cells was quantitively analyzed using the Cell Counter Kit-8 (Dojindo).
Specifically, human umbilical vein endothelial cells were inoculated onto a 96-well plate and cultured for 24 hours to obtain cultures at a density of 5,000 cells per well. The cultures were washed with PBS and cultured in a serum-free M199 medium for 16 hours. The cells were washed with PBS again and cultured in a serum-free M199 medium supplemented with 100 ng/mL T-Tβ4 or Tβ4 for one day. The cultures were obtained therefrom and a difference between proliferated amounts of cells was quantitively analyzed using the Cell Counter Kit-8 (Dojindo). Here, human umbilical vein endothelial cells cultured in a serum-free M199 medium without T-Tβ4 or Tβ4 were used as a control (Table 22).

The test system of the next assay is skin keratinocytes. The assay can be described thus: Keratinocyte growth (skin barrier strengthening), Cell Counter Kit-8. The class given is cell-based. The settings on record: 100 ng/mL T-IGF-1 or IGF-1, one day; control = 100. Here is the method:
Specifically, skin keratinocytes were cultured in a 96-well plate for one day to obtain cultures at a density of 6,000 cells per well. The cultures were washed with PBS and cultured in a serum-free DMEM medium for one day. The cells were washed with PBS again and cultured in a serum-free DMEM medium supplemented with 100 ng/mL T-IGF-1 or IGF-1 for one day. The cultures were obtained therefrom and a difference between proliferated amounts of cells was quantitively analyzed using the Cell Counter Kit-8 (Dojindo). Here, skin keratinocytes cultured in a serum-free DMEM medium without T-IGF-1 or IGF-1 were used as a control (Table 14).
Specifically, skin keratinocytes were cultured in a 96-well plate for 24 hours to obtain cultures at a density of 6,000 cells per well.
The cultures were washed with PBS and cultured in a serum-free DMEM medium for one day. The cells were washed with PBS again and cultured in a serum-free DMEM medium supplemented with 100 ng/mL T-KGF or KGF for one day. The cultures were obtained therefrom and a difference between proliferated amounts of cells was quantitively analyzed using the Cell Counter Kit-8 (Dojindo). Here, skin keratinocytes cultured in a serum-free DMEM medium without T-KGF or KGF were used as a control (Table 18).

With “PDGFa: platelet-derived growth factor subunit a having an amino acid sequence of SEQ ID NO: 35”, in the assay with dermal fibroblasts [1], the “Production (%) of collagen” value is recorded as 264 ± 17%. Further, the “Production (%) of hyaluronic acid (HA)” value in the assay with dermal fibroblasts [2] is on record as 897 ± 30%. Moreover, in the assay on dermal papilla cells (1 ng/mL T-PDGFa or PDGFa, one day), the “Proliferation (%)” value turned out to be 1030 ± 19%.
“Tβ4: thymosin beta 4 having an amino acid sequence of SEQ ID NO: 47”: the “Proliferation (%)” value in the assay on dermal papilla cells (10 ng/mL T-Tβ4 or Tβ4, one day) is 260 ± 20%; in assay [3] it was 180 ± 8%.
In the case of “IGF-1: insulin-like growth factor-1 having an amino acid sequence of SEQ ID NO: 41”, in the assay with dermal papilla cells (1 ng/mL T-IGF-1 or IGF-1, one day), the “Proliferation (%)” value turned out to be 440 ± 45%. The “Production (%) (keratinocyte growth)” value with skin keratinocytes came out at 250 ± 20%.
Regarding “T-Tβ4: SEQ ID NO: 1 peptide C-terminal linked to N-terminal of Tβ4 via GG linker (NGSLNTHLAPILGGSDKPDMAEIEKFDKSKLKKTETQEKNPLPSKETIEQEKQAGES; Synthetic Fusion protein of T-T beta 4)”, the “Proliferation (%)” value in the assay with dermal papilla cells (10 ng/mL T-Tβ4 or Tβ4, one day) is 220 ± 16%; in assay [3], 165 ± 17%. The “cell proliferation effect compared with the unfused protein” value is “same level” in the assay on dermal papilla cells (dermal papilla cells) and “same level” in assay [3] (human umbilical vein endothelial cells, 100 ng/mL).
